Tested on: AMPK
Assay: AMPK activation measurements in cultured cells (Western Blot of pThr172 AMPK alpha and pSer79 ACC)
Assay type: cell-based, human
Conditions: for activation of AMPK (anti-phosphoThr172 AMPK alpha, Western Blot) / phosphorylation of ACC substrate (anti-phosphoSer79ACC, Western Blot): HEK293 cells treated for 1 hour; for endogenous levels of AMPKα pT172: HEK293 cells, increasing doses, phenformin 5 mM as activation control; for activation of the AMPK complex: at the indicated doses (figures), cultured HEK293 cells
Description: AMPK activation measurements in cultured cells by means of compounds 7 and 16.
Cell line and treatments. The cell line that was used in the treatments with the different assayed reagents was HEK293T (human embryonic kidney cells). Cells were grown in DMEM (Dulbecco's Modified Eagle's Medium) with 25 mM of glucose supplemented with 10% of inactivated fetal bovine serum, 2 mM glutamine, 100 units/ml of penicillin and 100 μg/ml of streptomycin, in a humid atmosphere at 37° C. with 5% of CO2. Cells were grown on 60 mm (p. 60) plates to obtain 70-80% of confluence. Cells were washed in Krebs Ringer buffer (KRB: NaCI […], CaCl2 […], KH2PO4 0.5 mM, KCl 3 mM, NaHCO3 2.5 mM, MgSO40.5 mM, HEPES 10 mM pH 7.4, 95:5 O2/CO2) tempered at 37° C. and subsequently treated for 1 hour at 37° C. in a culture oven, adding the adequate quantities of 7 and 16 (5 mM stock in DMSO) dissolved in KRB/25 mM glucose to reach the final concentrations indicated in the figures. Phenformin 5 mM was used as an activation control.
Preparation of HEK293T cell extracts. After the corresponding treatments, the supernatant was removed and cells were quickly-frozen in liquid N2. The plates were processed one by one and kept in ice , firstly adding the cold lysis buffer. The composition of the buffer was as follows: Tris 10 mM pH 7.4, EDTA 15 mM pH 8.0, NaF 50 mM, Na4P2O7 15 mM, sacarose 0.6 M, 2-Mercaptoethanol 15 mM, a mixture of protease inhibitors without EDTA (Roche) and 1 mM PMSF. Cells were collected in a lysis buffer with the help of a scraper and were lysed, passing each sample through 24 G×⅝″ syringes four times. A small amount was reserved to measure the quantity of protein using the Bradford protein assay and loading buffer for electrophoresis was added to the rest and boiled for 5 min maintaining the samples at −20° C. until their use. The concentration of proteins was determined through the Bradford method using the Bio-Rad Bradford Protein Assay Reagent (BioRad).
Protein analysis by Western Blot. The protein extracts were analysed using SDS-PAGE in gels with 8% or 10% acrylamide and 1.5 mm thick. 30 µg of protein were loaded and transferred to a PVDF (Millipore) membrane for 1.5 hours at 100 V. Blockage was performed using 5% of skimmed milk in TBS-T for 1 hour at room temperature. Immunodetection was performed by incubating the primary antibody all night at 4° C. After three 10-minute washes at room temperature using TBS-T, they were incubated with their corresponding secondary antibody conjugated to HRP. After the three 10-minute washes at room temperature using TBS-T, the membranes were developed using ECL plus (Pierce) and processed using a FUJI LAS 3000 (Fujifilm) unit. The antibodies used were: anti-pAMPKαThr172, anti-AMPKβ1/β2, anti-ACC and anti-pACCser79 from the company Cell Signaling Technology (Danvers, Mass., USA) diluted 1:1000, and the HRP goat anti-rabbit secondary antibody from the company Santa Cruz Technology at a dilution of 1:5000 or 1:10000. The detection of bands with the anti-pAMPKαThr172 and anti-pACCser79 antibodies (AMPK substrate) with respect to their respective loading controls (anti-AMPKβ1/β2 and anti-ACC) was taken as an indicative of AMPK activation.

[1] = concentrations between 12.5 and 50 μM, FIG. 1
[2] = concentrations between 12.5 and 100 μM, FIG. 2

Question: `O=C(O)c1c(-c2ccc(-c3ccccc3O)cc2)c2ccccc2n1Cc1ccccc1` [compound 7, 1-benzyl-3-(2′-hydroxy-[1,1′-biphenyl]-4-yl)-1H-indole-2-carboxylic acid] was tested. Which “activation of AMPK (anti-phosphoThr172 AMPK alpha, Western Blot)” value [1] did it give?
Answer: activates AMPK in a dose-dependent manner

Question: What about the “phosphorylation of ACC substrate (anti-phosphoSer79ACC, Western Blot)” value [1] of the same compound?
Answer: increase in phosphorylation

Question: And the “endogenous levels of AMPKα pT172” value?
Answer: increase in endogenous levels of AMPKα pT172

Question: What about the “activation of the AMPK complex” value of the same compound?
Answer: capable of inducing the activation of the AMPK complex

Question: How did the “activation of AMPK (anti-phosphoThr172 AMPK alpha, Western Blot)” value [2] turn out when `O=C(O)c1[nH]c2ccccc2c1-c1ccc(-c2ccccc2O)cc1` [compound 16, 3-(2′-hydroxy-[1,1′-biphenyl]-4-yl)-1H-indole-2-carboxylic acid] was run?
Answer: activates AMPK in a dose-dependent manner

Question: And the “phosphorylation of ACC substrate (anti-phosphoSer79ACC, Western Blot)” value [2]?
Answer: increase in phosphorylation

Question: And the “endogenous levels of AMPKα pT172” value?
Answer: increase in endogenous levels of AMPKα pT172

Question: And the “activation of the AMPK complex” value?
Answer: capable of inducing the activation of the AMPK complex

Source: patent US20170283378A1, “INDOLE DERIVATIVES FOR THE PREVENTION AND/OR TREATMENT OF DIABETES AND ASSOCIATED METABOLIC DISORDERS” (Consejo Superior de Investigaciones Cientificas (CSIC), priority 2014, published 2017)
